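Test compounds were applied to cells in 96-well plates for 48 hours at 5 doses. Definition used: TGI = concentration required for complete inhibition of growth.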
Tests used:
Test in all cases: inhibition of tumour cell growth, NCI panel, 48 h
[1] = test system: NCI/ADR-RES ovarian
[2] = test system: SK-MEL-28 melanoma
[3] = test system: PC-3 prostate
[4] = test system: K-562 leukemia
[5] = test system: SR leukemia
[6] = test system: U251 CNS
[7] = test system: SNB-19 CNS
[8] = test system: OVCAR-4 ovarian
[9] = test system: HCC-2998 colon
[10] = test system: UACC-257 melanoma
[11] = test system: HOP-92 NSCLC
[12] = test system: MDA-N
[13] = test system: SK-MEL-2 melanoma
[14] = test system: SK-MEL-5 melanoma
[15] = test system: RPMI-8226 leukemia
[16] = test system: NCI-H226 lung
[17] = test system: CCRF-CEM leukemia
[18] = test system: KM12 colon
[19] = test system: NCI-H460 lung
[20] = test system: HCT-15 colon
[21] = test system: 786-0 renal
[22] = test system: SK-OV-3 ovarian
[23] = test system: MDA-MB-231 breast
[24] = test system: IGROV1 ovarian
[25] = test system: OVCAR-3 ovarian
[26] = test system: M14 melanoma
[27] = test system: MALME-3M melanoma
[28] = test system: DU-145 prostate
[29] = test system: LOX IMVI melanoma
[30] = test system: OVCAR-8 ovarian
[31] = test system: SNB-75 CNS
[32] = test system: HCT-116 colon
[33] = test system: SF-295 CNS
[34] = test system: RXF 393 renal
[35] = test system: SN12C renal
[36] = test system: A498 renal
[37] = test system: HT29 colon
[38] = test system: SW-620 colon
[39] = test system: MCF7 breast
[40] = test system: HL-60(TB) leukemia
[41] = test system: OVCAR-5 ovarian
[42] = test system: A549 NSCLC
[43] = test system: SF-268 CNS
[44] = test system: ACHN renal
[45] = test system: HS 578T breast
[46] = test system: TK-10 renal
[47] = test system: MOLT-4 leukemia
[48] = test system: NCI-H522 lung
[49] = test system: COLO 205 colon
[50] = test system: MDA-MB-435
[51] = test system: NCI-H23 lung
[52] = test system: EKVX NSCLC
[53] = test system: T-47D breast
[54] = test system: UO-31 renal
[55] = test system: HOP-62 NSCLC
[56] = test system: SF-539 CNS
[57] = test system: CAKI-1 renal
[58] = test system: UACC-62 melanoma
[59] = test system: BT-549 breast

Measured: TGI

O=C1c2c(ccc3c2CCC3)CC12Cc1cc3c(cc1C2)CCC3
not listed: [58] | [59]
> 100 µM: all other assays above

Cn1c(Nc2ccccc2)c(C=Nc2ccccc2)c(=O)n(C)c1=O
79.7 µM: [55]
not listed: [5] | [7] | [9] | [14] | [16] | [20] | [27] | [31] | [44] | [45] | [48] | [49] | [52] | [53] | [57]
> 100 µM: all other assays above

COC(=O)C1=Cc2cc(OC)c(O)cc2[C@@H](c2ccc(O)c(OC)c2)[C@@H]1C(=O)OC
not listed: [8] | [13] | [22] | [46] | [57] | [58] | [59]
> 100 µM: all other assays above

O=C(O)c1ccccc1C(=O)Nn1cnnc1
not listed: [5] | [16] | [19] | [27] | [36] | [40] | [45] | [53] | [57]
> 100 µM: all other assays above
